Patent US20240246916A1, “7-NITRO-8-HYDROXYQUINOLINE DERIVATIVES, PREPARATION METHOD THEREFORE AND MEDICAL USE THEREOF” (Jiangsu Yahong Meditech Co., Ltd., priority 2021, published 2024)
Values after ≈ are worked out from the molar mass of the structure shown.

Experiments:
Format in all cases: cell-based
[1] = test system: Staphylococcus aureus (methicillin-resistant and sensitive clinical isolates; ATCC29213); assay: MIC by micro broth dilution (CLSI), Staphylococcus aureus; conditions: for MIC50 / MIC90: Clinical strain; for MIC50: read-out: MIC50; for MIC90: read-out: MIC90; for MIC: Standard strain ATCC29213, read-out: MIC
Text: (§1) The test bacteria were one strain of clinically isolated carbapenem-resistant Escherichia coli, two strains of carbapenem-resistant Acinetobacter baumannii, two strains of methicillin-resistant Staphylococcus aureus, two strains of sensitive Staphylococcus aureus, and 7 strains of Klebsiella pneumoniae. Duplicate strains isolated from the same patient were eliminated. There were also […] quality control strains Escherichia coli ATCC25922, Acinetobacter baumannii ATCC19606, Staphylococcus aureus ATCC29213, Klebsiella pneumoniae ATCC BAA-1705, ATCC 43816, ATCC BAA-2472, ATCC-BAA-1898, ATCC-BAA-1899, NCTC 13440 and ATCC-BAA-2470. There were 24 strains in total.
(§2) According to the recommendations of relevant documents of the American Clinical and Laboratory Standards Institute (CLSI), the micro broth dilution method was used to determine the MIC of the compounds of the present invention against clinically isolated strains. • 3.1 Formulation of antibacterial drug: All the compounds of the present invention were dissolved in DMSO. The drug concentration range was 128 mg/L to 0.06 mg/L. • 3.2 Culture medium: The drug susceptibility test used cation adjusted Mueller-Hinton broth (CAMHB). • 3.3 Amount of inoculum: The test bacteria cultured overnight were adjusted to 0.5 McFarland turbidity by the direct colony suspension method, and diluted 100 folds, the final inoculum amount was 10^5 CFU/mL. • 3.4 Culture conditions: The test bacteria were cultured at 35±2° C. for 20 hours in air.
(§3) The drug susceptibility test results were interpretated by reference to CLSI 2019 M100 29th edition criteria.
(§4) The quality control strains of the drug susceptibility test were Escherichia coli ATCC 25922, Acinetobacter baumannii ATCC 19606, Staphylococcus aureus ATCC 29213, Klebsiella pneumoniae ATCC BAA-1705, ATCC 43816, ATCC BAA-2472, ATCC-BAA-1898, ATCC-BAA-1899, NCTC 13440 and ATCC-BAA-2470.
(§5) The results of drug susceptibility test were statistically analyzed by WHONET software (version 5.6).

[2] = test system: Escherichia coli (carbapenem-resistant clinical isolate; ATCC25922); assay: MIC by micro broth dilution (CLSI), Escherichia coli; conditions: Escherichia coli; for MIC50 / MIC90: ATCC25922, Clinical strain; for MIC50: read-out: MIC50; for MIC90: read-out: MIC90; for MIC: Standard strain ATCC25922, read-out: MIC
Text: as §1, §2, §3, §4, §5

[3] = test system: Acinetobacter baumannii (carbapenem-resistant clinical isolates; ATCC19606); assay: MIC by micro broth dilution (CLSI), Acinetobacter baumannii; conditions: Acinetobacter baumannii; for MIC50 / MIC90: ATCC19606, Clinical strain; for MIC50: read-out: MIC50; for MIC90: read-out: MIC90; for MIC: Standard strain ATCC19606, read-out: MIC
Text: as §1, §2, §3, §4, §5

| MIC50 [1] [µg/mL] | MIC90 [1] [µg/mL] | MIC [1] [µg/mL] | MIC50 [2] [µg/mL] | MIC90 [2] [µg/mL] | MIC [2] [µg/mL] | MIC50 [3] [µg/mL] | MIC90 [3] [µg/mL] | MIC [3] [µg/mL] | SMILES |
| --- | --- | --- | --- | --- | --- | --- | --- | --- | --- |
| 4 (≈ 20.9 µM) | 8 (≈ 41.8 µM) | 4 (≈ 20.9 µM) | 8 (≈ 41.8 µM) | 16 (≈ 83.7 µM) | 8 (≈ 41.8 µM) | 4 (≈ 20.9 µM) | 4 (≈ 20.9 µM) | 4 (≈ 20.9 µM) | [2H]c1cc2cccnc2c(O)c1[N+](=O)[O-] [Example 117, 7-nitroquinolin-6-d-8-ol] |
| 8 (≈ 23.3 µM) | 128 (≈ 372 µM) | 128 (≈ 372 µM) | > 128 | > 128 | > 128 | 128 (≈ 372 µM) | > 128 | > 128 | O=[N+]([O-])c1cc(Cl)c2c(N3CCCC(F)(F)C3)ccnc2c1O [Example 118, 5-chloro-4-(3,3-difluoropiperidin-1-yl)-7-nitroquinolin-8-ol] |
| 8 (≈ 36 µM) | > 128 | 8 (≈ 36 µM) | 32 (≈ 144 µM) | 32 (≈ 144 µM) | 16 (≈ 72 µM) | 16 (≈ 72 µM) | 32 (≈ 144 µM) | 16 (≈ 72 µM) | Cc1cnc2c(O)c([N+](=O)[O-])cc(F)c2c1 [Example 86, 5-fluoro-3-methyl-7-nitroquinolin-8-ol] |
| 128 (≈ 581 µM) | 128 (≈ 581 µM) | 64 (≈ 291 µM) | 32 (≈ 145 µM) | 64 (≈ 291 µM) | 64 (≈ 291 µM) |  |  |  | O=[N+]([O-])c1cc(CO)c2cccnc2c1O [Example 109, 5-(hydroxymethyl)-7-nitroquinolin-8-ol] |
| > 128 | > 128 | > 128 | > 128 | > 128 | > 128 | > 128 | > 128 | > 128 | O=C1CN(Cc2cnc3c(O)c([N+](=O)[O-])ccc3c2)CCN1 [Example 100, 4-((8-hydroxy-7-nitroquinolin-3-yl)methyl)piperazin-2-one] |
| > 128 | > 128 | > 128 | > 128 | > 128 | > 128 | > 128 | > 128 | > 128 | O=[N+]([O-])c1cc(CN2CCCC2)c2cccnc2c1O [Example 93, 7-nitro-5-(pyrrolidin-1-ylmethyl)quinolin-8-ol acetate] |
| 1 (≈ 3.86 µM) | 1 (≈ 3.86 µM) | 2 (≈ 7.72 µM) | 64 (≈ 247 µM) | 64 (≈ 247 µM) | 16 (≈ 61.8 µM) | 4 (≈ 15.4 µM) | 4 (≈ 15.4 µM) | 4 (≈ 15.4 µM) | O=[N+]([O-])c1c(Cl)c(Cl)c2cccnc2c1O [Example 115, 5,6-dichloro-7-nitroquinolin-8-ol] |
| 8 (≈ 31.5 µM) | 16 (≈ 63.1 µM) | 16 (≈ 63.1 µM) | 64 (≈ 252 µM) | 128 (≈ 505 µM) | 64 (≈ 252 µM) | 32 (≈ 126 µM) | 64 (≈ 252 µM) | 64 (≈ 252 µM) | CNc1c([N+](=O)[O-])c(O)c2ncccc2c1Cl [Example 7, 5-Chloro-6-(methylamino)-7-nitroquinolin-8-ol] |
| 2 (≈ 6.59 µM) | 2 (≈ 6.59 µM) | 2 (≈ 6.59 µM) | 64 (≈ 211 µM) | 64 (≈ 211 µM) | 16 (≈ 52.7 µM) | 4 (≈ 13.2 µM) | 8 (≈ 26.4 µM) | 8 (≈ 26.4 µM) | O=[N+]([O-])c1c(Br)c(Cl)c2cccnc2c1O [Example 114, 6-bromo-5-chloro-7-nitroquinolin-8-ol] |
| > 128 | > 128 | > 128 | > 128 | > 128 | > 128 | > 128 | > 128 | 128 | CNCc1cc([N+](=O)[O-])c(O)c2ncccc12.Cl.Cl [Example 99, 5-((methylamino)methyl)-7-nitroquinolin-8-ol dihydrochloride] |
| 4 (≈ 16.8 µM) | 8 (≈ 33.5 µM) | 8 (≈ 33.5 µM) | 64 (≈ 268 µM) | 128 (≈ 536 µM) | 32 (≈ 134 µM) |  |  |  | Cc1c([N+](=O)[O-])c(O)c2ncccc2c1Cl [Example 107, 5-chloro-6-methyl-7-nitroquinolin-8-ol] |
| 4 (≈ 16.4 µM) | 64 (≈ 262 µM) | 4 (≈ 16.4 µM) | > 128 | > 128 | 64 (≈ 262 µM) | 64 (≈ 262 µM) | 128 (≈ 524 µM) | 64 (≈ 262 µM) | Cc1cnc2c(O)c([N+](=O)[O-])cc(C3CC3)c2c1 [Example 84, 5-cyclopropyl-3-methyl-7-nitroquinolin-8-ol] |
| > 128 | > 128 | > 128 | > 128 | > 128 | > 128 | > 128 | > 128 | > 128 | Cl.Cl.Cl.O=[N+]([O-])c1cc(CN2CCNCC2)c2cccnc2c1O [Example 101, 7-nitro-5-(piperazin-1-ylmethyl)quinolin-8-ol trihydrochloride] |
| 16 (≈ 76.9 µM) | 16 (≈ 76.9 µM) | 16 (≈ 76.9 µM) | 8 (≈ 38.4 µM) | 128 (≈ 615 µM) | 16 (≈ 76.9 µM) |  |  |  | O=[N+]([O-])c1cc(F)c2cccnc2c1O [Example 106, 5-fluoro-7-nitroquinolin-8-ol] |
| 4 (≈ 17.7 µM) | 16 (≈ 70.9 µM) | 8 (≈ 35.5 µM) | 32 (≈ 142 µM) | 32 (≈ 142 µM) | 16 (≈ 70.9 µM) | 8 (≈ 35.5 µM) | 16 (≈ 70.9 µM) | 8 (≈ 35.5 µM) | [2H]c1ccnc2c(O)c([N+](=O)[O-])cc(Cl)c12 [Example 120, 5-chloro-7-nitroquinolin-4-d-8-ol] |
| > 128 | > 128 | > 128 | > 128 | > 128 | > 128 | > 128 | > 128 | > 128 | CCNCc1cc([N+](=O)[O-])c(O)c2ncccc12.Cl.Cl [Example 103, 5-((ethylamino)methyl)-7-nitroquinolin-8-ol dihydrochloride] |
| 128 (≈ 468 µM) | 128 (≈ 468 µM) | 128 (≈ 468 µM) | 128 (≈ 468 µM) | > 128 | 128 (≈ 468 µM) |  |  |  | O=[N+]([O-])c1ccc2c(C3CCNCC3)ccnc2c1O [Example 105, 7-nitro-4-(piperidin-4-yl)quinolin-8-ol] |
| 8 (≈ 31.2 µM) | 8 (≈ 31.2 µM) | 8 (≈ 31.2 µM) | 16 (≈ 62.5 µM) | 128 (≈ 500 µM) | 16 (≈ 62.5 µM) | 16 (≈ 62.5 µM) | 32 (≈ 125 µM) | 8 (≈ 31.2 µM) | O=[N+]([O-])c1ccc2c(OC(F)F)ccnc2c1O [Example 77, 4-(difluoromethoxy)-7-nitroquinolin-8-ol] |
| > 128 | > 128 | > 128 | > 128 | > 128 | > 128 | > 128 | > 128 | > 128 | O=[N+]([O-])c1cc(Cl)c2c(N3CCCC(c4ccccc4)C3)ccnc2c1O (centres unmarked) [Example 111, 5-chloro-7-nitro-4-(3-phenylpiperidin-1-yl)quinolin-8-ol] |
| > 128 | > 128 | 128 | > 128 | > 128 | > 128 |  |  |  | O=C(O)C(F)(F)F.O=[N+]([O-])c1cc(C(F)F)c2cccnc2c1O [Example 108, 5-(difluoromethyl)-7-nitroquinolin-8-ol trifluoroacetate] |
|  |  |  |  |  |  | 32 (≈ 157 µM) | 32 (≈ 157 µM) |  | Cc1cc([N+](=O)[O-])c(O)c2ncccc12 [Example 4, 5-Methyl-7-nitroquinolin-8-ol] |
